Experimental data from patent US4182896A, “Indane derivatives” (Societe Hexachimie, priority 1974, dated 1980).

What follows are compounds tested on SPF male rats, OFA strain (assay: Anti-inflammatory activity: paw swelling after subcutaneous plantar injection of carraghenine, oral administration). Conditions: 32 mg/kg oral, rat, carraghenine.
Format: in vivo
Description: Anti-inflammatory activity
The products to be tested are administered orally to batches of 12 SPF male rats, OFA strain, weighing 120-130 g, 2 hours and 30 minutes (1/2 dose each time) before the subcutaneous plantar injection of 0.05 ml of a 1% strength solution of carraghenine. The volume of the back paw which received the phlogogenic agent is measured at regular intervals. The 50% effective dose is calculated at the moment of greatest swelling of the controls.
The results are given in Tables I to IV below, in which the percentage reduction in the inflammation is noted.

Compound | percentage reduction in the inflammation [%]
CCC(C(=O)O)c1ccc2c(c1)CC(C(C)C)C2 (stereo not drawn) [Example 17, 2-Ethyl-[2-isopropyl-indanyl-(5)]-acetic acid] | 24

Same assay, conditions: 64 mg/kg oral, rat, carraghenine

Compound | percentage reduction in the inflammation [%]
CCC(C(=O)O)c1ccc2c(c1)CC(C(C)C)C2 (stereo not drawn) [Example 17, 2-Ethyl-[2-isopropyl-indanyl-(5)]-acetic acid] | 30

Same assay, conditions: 128 mg/kg oral, rat, carraghenine

Compound | percentage reduction in the inflammation [%]
CCC(C(=O)O)c1ccc2c(c1)CC(C(C)C)C2 (stereo not drawn) [Example 17, 2-Ethyl-[2-isopropyl-indanyl-(5)]-acetic acid] | 38

Same assay, conditions: 256 mg/kg oral, rat, carraghenine

Compound | percentage reduction in the inflammation [%]
CCC(C(=O)O)c1ccc2c(c1)CC(C(C)C)C2 (stereo not drawn) [Example 17, 2-Ethyl-[2-isopropyl-indanyl-(5)]-acetic acid] | 43

Same assay, conditions: Rattus norvegicus, po, 8 mg/kg oral, carraghenine, read-out: percentage reduction in the inflammation

Compound | inhibition in vivo at 8 mg/kg [%]
CC(C(=O)O)c1ccc2c(c1)CC(C(C)C)C2 (stereo not drawn) [Example 7, 2-Methyl-[2-Isopropyl-indanyl-(5)]-acetic acid] | 29

Same assay, conditions: Rattus norvegicus, po, 16 mg/kg oral, carraghenine, read-out: percentage reduction in the inflammation

Compound | inhibition in vivo at 16 mg/kg [%]
CC(C(=O)O)c1ccc2c(c1)CC(C(C)C)C2 (stereo not drawn) [Example 7, 2-Methyl-[2-Isopropyl-indanyl-(5)]-acetic acid] | 43
CC(C(=O)OCCN1CCOCC1)c1ccc2c(c1)CC(C(C)C)C2 (stereo not drawn) [Example 9, Morpholino-ethyl ester of 2-methyl-[2-isopropyl-indanyl-(5)]-acetic acid] | 47
CC1Cc2ccc(CC(=O)O)cc2C1 (stereo not drawn) [Example 12, [2-Methyl-indanyl-(5)]-acetic acid] | 15
CC1(C)Cc2ccc(CC(=O)O)cc2C1 [Example 13, [2,2-Dimethyl-indanyl-(5)]-acetic acid] | 23
CC(C(=O)O)c1ccc2c(c1)CC(C1CCCCC1)C2 (stereo not drawn) [Example 14, 2-Methyl-[2-cyclohexyl-indanyl-(5)]-acetic acid] | 11
CCC(C(=O)O)c1ccc2c(c1)CC(C(C)C)C2 (stereo not drawn) [Example 17, 2-Ethyl-[2-isopropyl-indanyl-(5)]-acetic acid] | 13

Same assay, conditions: Rattus norvegicus, po, 32 mg/kg oral, carraghenine, read-out: percentage reduction in the inflammation

Compound | inhibition in vivo at 32 mg/kg [%]
CC(C(=O)O)c1ccc2c(c1)CC(C(C)C)C2 (stereo not drawn) [Example 7, 2-Methyl-[2-Isopropyl-indanyl-(5)]-acetic acid] | 61
CC(C(=O)OCCN1CCOCC1)c1ccc2c(c1)CC(C(C)C)C2 (stereo not drawn) [Example 9, Morpholino-ethyl ester of 2-methyl-[2-isopropyl-indanyl-(5)]-acetic acid] | 68
CC1Cc2ccc(CC(=O)O)cc2C1 (stereo not drawn) [Example 12, [2-Methyl-indanyl-(5)]-acetic acid] | 23
CC1(C)Cc2ccc(CC(=O)O)cc2C1 [Example 13, [2,2-Dimethyl-indanyl-(5)]-acetic acid] | 29
CC(C(=O)O)c1ccc2c(c1)CC(C1CCCCC1)C2 (stereo not drawn) [Example 14, 2-Methyl-[2-cyclohexyl-indanyl-(5)]-acetic acid] | 5

Same assay, conditions: Rattus norvegicus, po, 64 mg/kg oral, carraghenine, read-out: percentage reduction in the inflammation

Compound | inhibition in vivo at 64 mg/kg [%]
CC(C(=O)O)c1ccc2c(c1)CC(C(C)C)C2 (stereo not drawn) [Example 7, 2-Methyl-[2-Isopropyl-indanyl-(5)]-acetic acid] | 73
CC(C(=O)OCCN1CCOCC1)c1ccc2c(c1)CC(C(C)C)C2 (stereo not drawn) [Example 9, Morpholino-ethyl ester of 2-methyl-[2-isopropyl-indanyl-(5)]-acetic acid] | 80
CC1Cc2ccc(CC(=O)O)cc2C1 (stereo not drawn) [Example 12, [2-Methyl-indanyl-(5)]-acetic acid] | 49
CC1(C)Cc2ccc(CC(=O)O)cc2C1 [Example 13, [2,2-Dimethyl-indanyl-(5)]-acetic acid] | 37
CC(C(=O)O)c1ccc2c(c1)CC(C1CCCCC1)C2 (stereo not drawn) [Example 14, 2-Methyl-[2-cyclohexyl-indanyl-(5)]-acetic acid] | 16

Same assay, conditions: Rattus norvegicus, po, 128 mg/kg oral, carraghenine, read-out: percentage reduction in the inflammation

Compound | inhibition in vivo at 128 mg/kg [%]
CC(C(=O)O)c1ccc2c(c1)CC(C(C)C)C2 (stereo not drawn) [Example 7, 2-Methyl-[2-Isopropyl-indanyl-(5)]-acetic acid] | 75
CC1Cc2ccc(CC(=O)O)cc2C1 (stereo not drawn) [Example 12, [2-Methyl-indanyl-(5)]-acetic acid] | 71
CC1(C)Cc2ccc(CC(=O)O)cc2C1 [Example 13, [2,2-Dimethyl-indanyl-(5)]-acetic acid] | 47
CC(C(=O)O)c1ccc2c(c1)CC(C1CCCCC1)C2 (stereo not drawn) [Example 14, 2-Methyl-[2-cyclohexyl-indanyl-(5)]-acetic acid] | 17

Same assay, conditions: Rattus norvegicus, po, 256 mg/kg oral, carraghenine, read-out: percentage reduction in the inflammation

Compound | inhibition in vivo at 256 mg/kg [%]
CC1Cc2ccc(CC(=O)O)cc2C1 (stereo not drawn) [Example 12, [2-Methyl-indanyl-(5)]-acetic acid] | 80
CC1(C)Cc2ccc(CC(=O)O)cc2C1 [Example 13, [2,2-Dimethyl-indanyl-(5)]-acetic acid] | 51
CC(C(=O)O)c1ccc2c(c1)CC(C1CCCCC1)C2 (stereo not drawn) [Example 14, 2-Methyl-[2-cyclohexyl-indanyl-(5)]-acetic acid] | 31

Same assay, conditions: Rattus norvegicus, po, 512 mg/kg oral, carraghenine, read-out: percentage reduction in the inflammation

Compound | inhibition in vivo at 512 mg/kg [%]
CC(C(=O)O)c1ccc2c(c1)CC(C1CCCCC1)C2 (stereo not drawn) [Example 14, 2-Methyl-[2-cyclohexyl-indanyl-(5)]-acetic acid] | 34

Same assay, conditions: Rattus norvegicus, po, at the moment of greatest swelling of the controls, read-out: ED50 (50% effective dose), anti-inflammatory

Compound | ED50 [mg/kg]
CC(C(=O)O)c1ccc2c(c1)CC(C(C)C)C2 (stereo not drawn) [Example 7, 2-Methyl-[2-Isopropyl-indanyl-(5)]-acetic acid] | 22
CC(C(=O)OCCN1CCOCC1)c1ccc2c(c1)CC(C(C)C)C2 (stereo not drawn) [Example 9, Morpholino-ethyl ester of 2-methyl-[2-isopropyl-indanyl-(5)]-acetic acid] | 17
CC1Cc2ccc(CC(=O)O)cc2C1 (stereo not drawn) [Example 12, [2-Methyl-indanyl-(5)]-acetic acid] | 70
CC1(C)Cc2ccc(CC(=O)O)cc2C1 [Example 13, [2,2-Dimethyl-indanyl-(5)]-acetic acid] | 200
CC(C(=O)O)c1ccc2c(c1)CC(C1CCCCC1)C2 (stereo not drawn) [Example 14, 2-Methyl-[2-cyclohexyl-indanyl-(5)]-acetic acid] | > 512

Same assay, conditions: oral, rat, at the moment of greatest swelling of the controls

Compound | ED50 (50% effective dose), anti-inflammatory [mg/kg]
CCC(C(=O)O)c1ccc2c(c1)CC(C(C)C)C2 (stereo not drawn) [Example 17, 2-Ethyl-[2-isopropyl-indanyl-(5)]-acetic acid] | > 256

These compounds were tested on male mice (SPF1, OF1 strain) (assay: Analgesic activity: inhibition of pain reactions (abdominal twistings) after intraperitoneal phenylbenzoquinone, oral administration). Conditions: 128 mg/kg oral, mouse.
Format: in vivo
Description: The products tested are administered orally to batches of 6 male mice (SPF1, OF1 strain) weighing 19-20 g.
1 hour later, 0.3 ml of a 0.02% strength solution of phenylbenzoquinone is injected intraperitoneally into each mouse and, from the 5th to the 10th minute after the latter treatment, the number of pain reactions (abdominal twistings) is counted.
Table V to VIII below give the percentage inhibition of these reactions.

Compound | percentage inhibition of pain reactions [%]
CCC(C(=O)O)c1ccc2c(c1)CC(C(C)C)C2 (stereo not drawn) [Example 17, 2-Ethyl-[2-isopropyl-indanyl-(5)]-acetic acid] | 70

Same assay, conditions: Mus musculus, po, 8 mg/kg oral, read-out: percentage inhibition of pain reactions

Compound | inhibition in vivo at 8 mg/kg [%]
CC(C(=O)O)c1ccc2c(c1)CC(C(C)C)C2 (stereo not drawn) [Example 7, 2-Methyl-[2-Isopropyl-indanyl-(5)]-acetic acid] | 17

Same assay, conditions: Mus musculus, po, 16 mg/kg oral, read-out: percentage inhibition of pain reactions

Compound | inhibition in vivo at 16 mg/kg [%]
CC(C(=O)O)c1ccc2c(c1)CC(C(C)C)C2 (stereo not drawn) [Example 7, 2-Methyl-[2-Isopropyl-indanyl-(5)]-acetic acid] | 61
CC1(C)Cc2ccc(CC(=O)O)cc2C1 [Example 13, [2,2-Dimethyl-indanyl-(5)]-acetic acid] | 15

Same assay, conditions: Mus musculus, po, 32 mg/kg oral, read-out: percentage inhibition of pain reactions

Compound | inhibition in vivo at 32 mg/kg [%]
CC(C(=O)O)c1ccc2c(c1)CC(C(C)C)C2 (stereo not drawn) [Example 7, 2-Methyl-[2-Isopropyl-indanyl-(5)]-acetic acid] | 96
CC(C(=O)OCCN1CCOCC1)c1ccc2c(c1)CC(C(C)C)C2 (stereo not drawn) [Example 9, Morpholino-ethyl ester of 2-methyl-[2-isopropyl-indanyl-(5)]-acetic acid] | 28
CC1Cc2ccc(CC(=O)O)cc2C1 (stereo not drawn) [Example 12, [2-Methyl-indanyl-(5)]-acetic acid] | 9
CC1(C)Cc2ccc(CC(=O)O)cc2C1 [Example 13, [2,2-Dimethyl-indanyl-(5)]-acetic acid] | 30
CC(C(=O)O)c1ccc2c(c1)CC(C1CCCCC1)C2 (stereo not drawn) [Example 14, 2-Methyl-[2-cyclohexyl-indanyl-(5)]-acetic acid] | 20

Same assay, conditions: Mus musculus, po, 64 mg/kg oral, read-out: percentage inhibition of pain reactions

Compound | inhibition in vivo at 64 mg/kg [%]
CC(C(=O)OCCN1CCOCC1)c1ccc2c(c1)CC(C(C)C)C2 (stereo not drawn) [Example 9, Morpholino-ethyl ester of 2-methyl-[2-isopropyl-indanyl-(5)]-acetic acid] | 26
CC1Cc2ccc(CC(=O)O)cc2C1 (stereo not drawn) [Example 12, [2-Methyl-indanyl-(5)]-acetic acid] | 20
CC1(C)Cc2ccc(CC(=O)O)cc2C1 [Example 13, [2,2-Dimethyl-indanyl-(5)]-acetic acid] | 71
CC(C(=O)O)c1ccc2c(c1)CC(C1CCCCC1)C2 (stereo not drawn) [Example 14, 2-Methyl-[2-cyclohexyl-indanyl-(5)]-acetic acid] | 35
CCC(C(=O)O)c1ccc2c(c1)CC(C(C)C)C2 (stereo not drawn) [Example 17, 2-Ethyl-[2-isopropyl-indanyl-(5)]-acetic acid] | 28

Same assay, conditions: Mus musculus, po, 128 mg/kg oral, read-out: percentage inhibition of pain reactions

Compound | inhibition in vivo at 128 mg/kg [%]
CC(C(=O)OCCN1CCOCC1)c1ccc2c(c1)CC(C(C)C)C2 (stereo not drawn) [Example 9, Morpholino-ethyl ester of 2-methyl-[2-isopropyl-indanyl-(5)]-acetic acid] | 79
CC1Cc2ccc(CC(=O)O)cc2C1 (stereo not drawn) [Example 12, [2-Methyl-indanyl-(5)]-acetic acid] | 46
CC1(C)Cc2ccc(CC(=O)O)cc2C1 [Example 13, [2,2-Dimethyl-indanyl-(5)]-acetic acid] | 83
CC(C(=O)O)c1ccc2c(c1)CC(C1CCCCC1)C2 (stereo not drawn) [Example 14, 2-Methyl-[2-cyclohexyl-indanyl-(5)]-acetic acid] | 52

Same assay, conditions: Mus musculus, po, 256 mg/kg oral, read-out: percentage inhibition of pain reactions

Compound | inhibition in vivo at 256 mg/kg [%]
CC(C(=O)OCCN1CCOCC1)c1ccc2c(c1)CC(C(C)C)C2 (stereo not drawn) [Example 9, Morpholino-ethyl ester of 2-methyl-[2-isopropyl-indanyl-(5)]-acetic acid] | 97
CC1Cc2ccc(CC(=O)O)cc2C1 (stereo not drawn) [Example 12, [2-Methyl-indanyl-(5)]-acetic acid] | 67
CC(C(=O)O)c1ccc2c(c1)CC(C1CCCCC1)C2 (stereo not drawn) [Example 14, 2-Methyl-[2-cyclohexyl-indanyl-(5)]-acetic acid] | 62
CCC(C(=O)O)c1ccc2c(c1)CC(C(C)C)C2 (stereo not drawn) [Example 17, 2-Ethyl-[2-isopropyl-indanyl-(5)]-acetic acid] | 83

Same assay, conditions: Mus musculus, po, 512 mg/kg oral, read-out: percentage inhibition of pain reactions

Compound | inhibition in vivo at 512 mg/kg [%]
CC1Cc2ccc(CC(=O)O)cc2C1 (stereo not drawn) [Example 12, [2-Methyl-indanyl-(5)]-acetic acid] | 75
CC(C(=O)O)c1ccc2c(c1)CC(C1CCCCC1)C2 (stereo not drawn) [Example 14, 2-Methyl-[2-cyclohexyl-indanyl-(5)]-acetic acid] | 93
CCC(C(=O)O)c1ccc2c(c1)CC(C(C)C)C2 (stereo not drawn) [Example 17, 2-Ethyl-[2-isopropyl-indanyl-(5)]-acetic acid] | 100

Same assay, conditions: Mus musculus, po, read-out: ED50 (50% effective dose), analgesic

Compound | ED50 [mg/kg]
CC(C(=O)O)c1ccc2c(c1)CC(C(C)C)C2 (stereo not drawn) [Example 7, 2-Methyl-[2-Isopropyl-indanyl-(5)]-acetic acid] | 14
CC(C(=O)OCCN1CCOCC1)c1ccc2c(c1)CC(C(C)C)C2 (stereo not drawn) [Example 9, Morpholino-ethyl ester of 2-methyl-[2-isopropyl-indanyl-(5)]-acetic acid] | 78
CC1Cc2ccc(CC(=O)O)cc2C1 (stereo not drawn) [Example 12, [2-Methyl-indanyl-(5)]-acetic acid] | 175
CC1(C)Cc2ccc(CC(=O)O)cc2C1 [Example 13, [2,2-Dimethyl-indanyl-(5)]-acetic acid] | 46
CC(C(=O)O)c1ccc2c(c1)CC(C1CCCCC1)C2 (stereo not drawn) [Example 14, 2-Methyl-[2-cyclohexyl-indanyl-(5)]-acetic acid] | 110

Same assay, conditions: oral, mouse

Compound | ED50 (50% effective dose), analgesic [mg/kg]
CCC(C(=O)O)c1ccc2c(c1)CC(C(C)C)C2 (stereo not drawn) [Example 17, 2-Ethyl-[2-isopropyl-indanyl-(5)]-acetic acid] | 100
